Among the data in patent US9345677B2, “Compositions, methods and kits relating to HER-2 cleavage” (Incyte Corporation, priority 2003, dated 2016) are IC50, MMP2 activity and MMP3 activity values, retold here.

The test system of one test is Her-2 sheddase. The test is described as follows: Her-2 ECD ELISA of BT474 culture supernatants (Her-2 sheddase inhibition). It counts as cell-based, human. Here is the method:
BT474 cells were seeded in 100 μL of RPMI medium containing 10% FCS+10 μg/ml insulin in 96 well plates at 2×10^4 cells/well. The cells were incubated overnight at 37° C. The following morning, the media was removed and 100 μL of fresh media with or without compound was added back. The cells were incubated for about 72 hours at 37° C. After about 72 hours, the supernatants were removed. The samples were diluted 1:10 and analyzed using a commercially available Her-2 ELISA kit per manufacturer's instructions (Oncogene Research, catalog #QIA 10).
These inhibitors were added, at varying concentrations, to cultures of BT474 cells, a Her-2 overexpressing breast cancer cell line known to enzymatically process cell surface Her-2 (p185) and release the extracellular domain (ECD) into the culture supernatant, i.e., shedding of ECD. After 72 hours, cell culture supernatants were harvested and assayed for Her-2 ECD content using an ELISA assay.

For a further test, the target named is MMP12 (Homo sapiens, UniProt P39900). The test is described as follows: MMP12 fluorogenic peptide biochemical assay. An excerpt: (§1) Source of enzymes for biochemical assays: Except for ADAM17 and MT1-MMP, all recombinant human MMPs and ADAMs were obtained from R&D Systems (Minneapolis, Minn.). […] MT1-MMP was obtained from US Biological (Swampscott, Mass.) with a catalog number of M2429. Porcine ADAM17 was purified in house from porcine spleen.
(§2) Substrates for biochemical assays: Fluorogenic Peptide substrate, (7-methoxycoumarin-4-yl)acetyl-Pro-Leu-Gly-Leu-(3-[2,4-dinitrophenyl]-L-2,3-diaminopropionyl)-Ala-Arg-NH2 (SEQ ID NO: 46), was obtained from R&D Systems (Minneapolis, Minn.) with a catalog number of ES001. It was used as substrate for MMP1, MMP2, MMP7, MMP8, MMP9, MMP12, MMP13, and MT1-MMP. Fluorogenic Peptide substrate, (7-methoxycoumarin-4-yl)acetyl-Arg-Pro-Lys-Pro-Val-Glu-Nva-Trp-Arg-Lys(2,4-dinitrophenyl)-NH2 (SEQ ID NO: 47), was obtained from R&D Systems with a catalog number of ES002. It was used as substrate for MMP3 and MMP10. […]
(§3) In general, 5 mM compound stock was prepared in DMSO. […] The plate was read on a plate reader with excitation of 320 nm and emission of 405 nm. Percentage of inhibition was calculated for each concentration and IC50 value was generated from curve fitting. […]

For another test, the target named is T1, MMP2 (Homo sapiens, UniProt P08253).
T1 construct: purchased R&D Systems 902-MP
T1 sequence (P08253 110-660): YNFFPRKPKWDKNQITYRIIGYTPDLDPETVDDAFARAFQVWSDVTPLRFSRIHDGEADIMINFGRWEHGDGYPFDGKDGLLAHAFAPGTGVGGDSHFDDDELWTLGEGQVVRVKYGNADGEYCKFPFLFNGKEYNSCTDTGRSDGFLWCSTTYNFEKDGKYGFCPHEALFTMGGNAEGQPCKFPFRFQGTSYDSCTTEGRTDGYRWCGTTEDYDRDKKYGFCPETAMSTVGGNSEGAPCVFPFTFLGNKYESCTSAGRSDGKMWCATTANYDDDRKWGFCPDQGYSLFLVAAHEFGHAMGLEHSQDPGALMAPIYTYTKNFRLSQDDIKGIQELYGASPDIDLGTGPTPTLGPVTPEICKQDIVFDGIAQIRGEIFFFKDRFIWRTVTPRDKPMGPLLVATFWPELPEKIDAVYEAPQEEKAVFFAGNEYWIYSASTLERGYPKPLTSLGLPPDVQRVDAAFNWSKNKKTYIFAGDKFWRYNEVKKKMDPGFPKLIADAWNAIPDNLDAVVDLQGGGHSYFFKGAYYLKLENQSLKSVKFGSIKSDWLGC
Kind of test: MMP2 fluorogenic peptide biochemical assay.

In the next test the target is T2, MMP3 (Homo sapiens, UniProt P08254).
T2 construct: purchased R&D Systems 513-MP
The test is described as follows: MMP3 fluorogenic peptide biochemical assay.
Text: as §1, §2, §3

Chain of MMP12 (P39900 106-470): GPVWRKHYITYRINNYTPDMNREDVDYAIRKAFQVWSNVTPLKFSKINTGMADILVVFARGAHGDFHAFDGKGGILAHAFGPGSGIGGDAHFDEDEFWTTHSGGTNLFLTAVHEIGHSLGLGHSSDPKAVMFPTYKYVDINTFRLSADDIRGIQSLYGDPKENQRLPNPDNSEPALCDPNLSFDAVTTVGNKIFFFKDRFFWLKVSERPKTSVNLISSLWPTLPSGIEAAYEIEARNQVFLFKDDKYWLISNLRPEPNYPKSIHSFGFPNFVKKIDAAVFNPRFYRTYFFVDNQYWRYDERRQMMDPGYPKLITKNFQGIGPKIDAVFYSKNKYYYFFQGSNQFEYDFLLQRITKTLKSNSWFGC
T2 sequence (P08254 100-477): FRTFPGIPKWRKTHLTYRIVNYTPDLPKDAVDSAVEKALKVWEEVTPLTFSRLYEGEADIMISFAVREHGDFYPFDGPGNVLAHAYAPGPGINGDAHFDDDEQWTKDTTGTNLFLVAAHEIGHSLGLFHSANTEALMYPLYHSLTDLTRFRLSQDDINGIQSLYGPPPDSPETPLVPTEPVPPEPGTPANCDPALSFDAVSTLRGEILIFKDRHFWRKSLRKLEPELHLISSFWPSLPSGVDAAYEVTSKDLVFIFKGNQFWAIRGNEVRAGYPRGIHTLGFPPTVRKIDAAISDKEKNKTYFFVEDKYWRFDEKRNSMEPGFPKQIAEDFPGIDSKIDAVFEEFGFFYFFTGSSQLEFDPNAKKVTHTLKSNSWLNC
Description for MMP2: Biochemical Assays: In general, assay buffer conditions were chosen based on obtaining optimal enzymatic activities. The specific assay buffer conditions are summarized as following. For MMP1, MMP2, MMP3, MMP7, and MMP12, the assay buffer contains 50 mM Tricine, 10 mM NaCl, 10 mM CaCl2, 1.0 mM ZnCl2, pH 7.4.
To activate MMP enzymes, 10 or 20 μg of lyophilized Pro-MMPs are dissolved in 100 μL of water. 100 mM p-aminophenylmercuric acetate (APMA) stock in DMSO is added to Pro-MMPs to give 1.0 mM final concentration. Incubate enzyme with APMA at 37° C. for a period time specified below.

`Cc1cc([N+](=O)[O-])ccc1N1CCN(C(=O)[C@@H]2[C@@H](C(=O)NO)CC3(CC3)CN2C)CC1` [Compound 5, (6S,7S)-N-hydroxy-5-methyl-6-{[4-(2-methyl-4-nitrophenyl)piperazin-1-yl]-carbonyl}-5-azaspiro[2.5]octane-7-carboxamide]: the figures for the concentration for half-maximal inhibition (IC50) with Her-2 sheddase and against MMP12 were 198 to 250 nM and 584 nM, respectively. Besides, the MMP2 activity entry on MMP2 was “inactive”. Also, the MMP3 activity entry on MMP3 was “inactive”.
